# Test results as given in US10487093B2, “Heterocyclic compounds, in particular 2-oxo-4,4,5,5,6,6,7,7-octahydrobenzoxazole derivatives, and their use as antibacterial compounds” (priority 2016, dated 2019).
# Like-named read-outs stand apart in the source and are kept apart here.
# Legend:
# [1] = test system: human hepatic cell line (HepG2 ATCC HB-8065); assay: Human cell viability assay (CellTiter-Glo); conditions: for IC50: Homo sapiens, HepG2, 24 h, read-out: IC50 (μg/mL) HepG2
# [2] = test system: Enterobacter cloacae NCTC 13406; assay: MIC, broth microdilution (CLSI) versus planktonic bacteria; type: cell-based; conditions: Enterobacter cloacae NCTC 13406, 16-20 h, mode of three independent experiments; for MIC: NCTC13406, read-out: MIC, Ecl NCTC 13406
# [3] = test system: Pseudomonas aeruginosa ATCC 27853; assay: as above; type: cell-based; conditions: Pseudomonas aeruginosa ATCC 27853, 16-20 h, mode of three independent experiments; for MIC: ATCC27853, read-out: MIC, Pa ATCC 27853
# E. coli ATCC BAA-2452 = assay: as above; type: cell-based; conditions: Escherichia coli ATCC BAA-2452, 16-20 h, mode of three independent experiments; for MIC: read-out: MIC, Ec ATCC BAA 2452
# E. coli NCTC 13476 = assay: as above; type: cell-based; conditions: Escherichia coli NCTC 13476, 16-20 h, mode of three independent experiments; for MIC: NCTC13476, read-out: MIC, Ec NCTC 13476
# E. coli MG1655 = assay: as above; type: cell-based, Escherichia coli; conditions: for MIC: Escherichia coli, MG1655, read-out: MIC, Ec MG1655 WT
# [4] = test system: Escherichia coli ATCC 25922; assay: as above; type: cell-based; conditions: Escherichia coli ATCC 25922, 16-20 h, mode of three independent experiments; for MIC: ATCC25922, read-out: MIC, Ec ATCC 25922
# [5] = test system: Staphylococcus aureus ATCC 29213; assay: as above; type: cell-based; conditions: Staphylococcus aureus ATCC 29213, 16-20 h, mode of three independent experiments; for MIC: ATCC29213, read-out: MIC, Sa ATCC 29213
# [6] = test system: Haemophilus influenzae ATCC 49247; assay: as above; type: cell-based; conditions: Haemophilus influenzae ATCC 49247, 16-20 h, mode of three independent experiments; for MIC: ATCC49247, read-out: MIC, Hi ATCC 49247
# [7] = test system: Streptococcus pneumoniae ATCC 49619; assay: as above; type: cell-based; conditions: Streptococcus pneumoniae ATCC 49619, 16-20 h, mode of three independent experiments; for MIC: ATCC49619, read-out: MIC, Sp ATCC 49619
# E. coli MG1655 S83L = type: cell-based, Escherichia coli
# [8] = test system: Acinetobacter baumannii NCTC 13420; assay: MIC, broth microdilution (CLSI) versus planktonic bacteria; type: cell-based; conditions: Acinetobacter baumannii NCTC 13420, 16-20 h, mode of three independent experiments; for MIC: NCTC13420, read-out: MIC, Ab NCTC 13420
# [9] = test system: Acinetobacter baumannii ATCC 19606; assay: as above; type: cell-based; conditions: Acinetobacter baumannii ATCC 19606, 16-20 h, mode of three independent experiments; for MIC: ATCC19606, read-out: MIC, Ab ATCC 19606
# E. coli MG1655 D87G = type: cell-based, Escherichia coli
# [10] = compared to the isogenic parent strain E. coli MG1655, S83L mutation on DNA gyrase subunit GyrA
# [11] = compared to the isogenic parent strain E. coli MG1655, D87G mutation on DNA gyrase subunit GyrA
compound,measurement,setting,value
"1-[(2S)-3-{[(3aS,6S,7aS)-2-oxo-3-{3-oxo-2H,3H,4H-pyrido[3,2-b][1,4]oxazin-6-yl}-octahydro-1,3-benzoxazol-6-yl]amino}-2-hydroxypropyl]-7-fluoro-1,2-dihydroquinoxalin-2-one & 1-[(2R)-3-{[(3aS,6S,7aS)-2-oxo-3-{3-oxo-2H,3H,4H-pyrido[3,2-b][1,4]oxazin-6-yl}-octahydro-1,3-benzoxazol-6-yl]amino}-2-hydroxypropyl]-7-fluoro-1,2-dihydroquinoxalin-2-one [Compound 95]",IC50 (μg/mL) HepG2,"[1]; HepG2 cell viability, 24 h, CellTiter-Glo",A (an IC50 of over 100 is assigned the letter A)
same,"MIC, Ecl NCTC 13406",[2],B (a MIC of from 1 to 10 is assigned the letter B)
same,"MIC, Pa ATCC 27853",[3],B (a MIC of from 1 to 10 is assigned the letter B)
same,"MIC, Ec ATCC BAA 2452",E. coli ATCC BAA-2452,A (an MIC (in μg/mL) of less or equal to 1 is assigned the letter A)
same,"MIC, Ec NCTC 13476",E. coli NCTC 13476,A (an MIC (in μg/mL) of less or equal to 1 is assigned the letter A)
same,"MIC, Ec MG1655 WT","E. coli MG1655; Escherichia coli MG1655 WT, 16-20 h, mode of three independent experiments",A (an MIC (in μg/mL) of less or equal to 1 is assigned the letter A)
same,"MIC, Ec ATCC 25922",[4],A (an MIC (in μg/mL) of less or equal to 1 is assigned the letter A)
same,"MIC, Sa ATCC 29213",[5],A (an MIC (in μg/mL) of less or equal to 1 is assigned the letter A)
same,"MIC, Hi ATCC 49247",[6],A (an MIC (in μg/mL) of less or equal to 1 is assigned the letter A)
same,"MIC, Sp ATCC 49619",[7],A (an MIC (in μg/mL) of less or equal to 1 is assigned the letter A)
same,"Fold increase in MIC, E. coli MG1655 S83L",E. coli MG1655 S83L,0.5 fold
same,"MIC, Ab NCTC 13420",[8],A (an MIC (in μg/mL) of less or equal to 1 is assigned the letter A)
same,"MIC, Ab ATCC 19606",[9],B (a MIC of from 1 to 10 is assigned the letter B)
same,"Fold increase in MIC, E. coli MG1655 D87G",E. coli MG1655 D87G,1 fold
"COc1ccc2ncc(=O)n(CCN[C@H]3CCC4C(C3)OC(=O)N4c3ccc4c(n3)NC(=O)CO4)c2n1 (stereo in doubt) [Compound 45, (3aS,6S,7aS)-6-[(2-{6-methoxy-3-oxo-3H,4H-pyrido[2,3-b]pyrazin-4-yl}ethyl)amino]-3-{3-oxo-2H,3H,4H-pyrido[3,2-b][1,4]oxazin-6-yl}-octahydro-1,3-benzoxazol-2-one]",IC50,[1],10 to 100 µg/mL
same,MIC,[2],< 1 µg/mL
same,MIC,[3],1 to 10 µg/mL
same,MIC,E. coli ATCC BAA-2452,< 1 µg/mL
same,MIC,E. coli NCTC 13476,< 1 µg/mL
same,MIC,E. coli MG1655,< 1 µg/mL
same,MIC,[4],< 1 µg/mL
same,MIC,[5],< 1 µg/mL
same,MIC,[6],< 1 µg/mL
same,MIC,[7],< 1 µg/mL
same,"Fold increase in MIC, E. coli MG1655 S83L",E. coli MG1655 S83L; [10],2 fold
same,MIC,[8],< 1 µg/mL
same,MIC,[9],< 1 µg/mL
same,"Fold increase in MIC, E. coli MG1655 D87G",E. coli MG1655 D87G; [11],1 fold
"COc1ccc2ccc(=O)n(CCN(CCO)[C@H]3CC[C@H]4[C@@H](C3)OC(=O)N4c3ccc4c(n3)NC(=O)CO4)c2n1 [Compound 7, 1-(2-{[(3aS,6S,7aR)-2-oxo-3-{3-oxo-2H,3H,4H-pyrido[3,2-b][1,4]oxazin-6-yl}-octahydro-1,3-benzoxazol-6-yl](2-hydroxyethyl)amino}ethyl)-7-methoxy-1,2-dihydro-1,8-naphthyridin-2-one]",IC50,[1],> 100 µg/mL
same,MIC,[2],1 to 10 µg/mL
same,MIC,[3],1 to 10 µg/mL
same,MIC,E. coli ATCC BAA-2452,1 to 10 µg/mL
same,MIC,E. coli NCTC 13476,1 to 10 µg/mL
same,MIC,E. coli MG1655,< 1 µg/mL
same,MIC,[4],< 1 µg/mL
same,MIC,[5],< 1 µg/mL
same,MIC,[6],1 to 10 µg/mL
same,MIC,[7],< 1 µg/mL
same,"Fold increase in MIC, E. coli MG1655 S83L",E. coli MG1655 S83L; [10],1 fold
same,MIC,[8],< 1 µg/mL
same,MIC,[9],1 to 10 µg/mL
same,"Fold increase in MIC, E. coli MG1655 D87G",E. coli MG1655 D87G; [11],1 fold
"N#Cc1ccc2ccc(=O)n(CCN[C@H]3CC[C@H]4[C@@H](C3)OC(=O)N4c3ccc4c(n3)NC(=O)CO4)c2c1 [Compound 14, 1-(2-{[(3aS,6S,7aR)-2-oxo-3-{3-oxo-2H,3H,4H-pyrido[3,2-b][1,4]oxazin-6-yl}-octahydro-1,3-benzoxazol-6-yl]amino}ethyl)-2-oxo-1,2-dihydroquinoline-7-carbonitrile]",IC50,[1],> 100 µg/mL
same,MIC,[2],< 1 µg/mL
same,MIC,[3],< 1 µg/mL
same,MIC,E. coli ATCC BAA-2452,< 1 µg/mL
same,MIC,E. coli NCTC 13476,< 1 µg/mL
same,MIC,E. coli MG1655,< 1 µg/mL
same,MIC,[4],< 1 µg/mL
same,MIC,[5],< 1 µg/mL
same,MIC,[6],< 1 µg/mL
same,MIC,[7],< 1 µg/mL
same,"Fold increase in MIC, E. coli MG1655 S83L",E. coli MG1655 S83L; [10],2 fold
same,MIC,[8],< 1 µg/mL
same,MIC,[9],< 1 µg/mL
same,"Fold increase in MIC, E. coli MG1655 D87G",E. coli MG1655 D87G; [11],2 fold
"N#Cc1ccc2ccc(=O)n(CCN[C@H]3CC[C@H]4[C@@H](C3)OC(=O)N4c3ccc4c(n3)NC(=O)CO4)c2n1 [Compound 15, 8-(2-{[(3aS,6S,7aR)-2-oxo-3-{3-oxo-2H,3H,4H-pyrido[3,2-b][1,4]oxazin-6-yl}-octahydro-1,3-benzoxazol-6-yl]amino}ethyl)-7-oxo-7,8-dihydro-1,8-naphthyridine-2-carbonitrile]",IC50,[1],10 to 100 µg/mL
same,MIC,[2],1 to 10 µg/mL
same,MIC,[3],1 to 10 µg/mL
same,MIC,E. coli ATCC BAA-2452,1 to 10 µg/mL
same,MIC,E. coli NCTC 13476,1 to 10 µg/mL
same,MIC,E. coli MG1655,1 to 10 µg/mL
same,MIC,[4],< 1 µg/mL
same,MIC,[5],< 1 µg/mL
same,MIC,[6],1 to 10 µg/mL
same,MIC,[7],< 1 µg/mL
same,"Fold increase in MIC, E. coli MG1655 S83L",E. coli MG1655 S83L; [10],1 fold
same,MIC,[8],1 to 10 µg/mL
same,MIC,[9],1 to 10 µg/mL
same,"Fold increase in MIC, E. coli MG1655 D87G",E. coli MG1655 D87G; [11],1 fold
"COc1ccc2ncc(=O)n(CCN[C@H]3CC[C@H]4[C@@H](C3)OC(=O)N4c3ccc4c(n3)NC(=O)CO4)c2c1 [Compound 24, 1-(2-{[(3aS,6S,7aR)-2-oxo-3-{3-oxo-2H,3H,4H-pyrido[3,2-b][1,4]oxazin-6-yl}-octahydro-1,3-benzoxazol-6-yl]amino}ethyl)-7-methoxy-1,2-dihydroquinoxalin-2-one]",IC50,[1],> 100 µg/mL
same,MIC,[2],< 1 µg/mL
same,MIC,[3],< 1 µg/mL
same,MIC,E. coli ATCC BAA-2452,< 1 µg/mL
same,MIC,E. coli NCTC 13476,< 1 µg/mL
same,MIC,E. coli MG1655,< 1 µg/mL
same,MIC,[4],< 1 µg/mL
same,MIC,[5],< 1 µg/mL
same,MIC,[6],< 1 µg/mL
same,MIC,[7],< 1 µg/mL
same,"Fold increase in MIC, E. coli MG1655 S83L",E. coli MG1655 S83L; [10],2 fold
same,MIC,[8],< 1 µg/mL
same,MIC,[9],< 1 µg/mL
same,"Fold increase in MIC, E. coli MG1655 D87G",E. coli MG1655 D87G; [11],2 fold
"COc1cnc2ccc(=O)n(CCN[C@H]3CC[C@H]4[C@@H](C3)OC(=O)N4c3ccc4c(n3)NC(=O)CO4)c2c1 [Compound 30, 1-(2-{[(3aS,6S,7aR)-2-oxo-3-{3-oxo-2H,3H,4H-pyrido[3,2-b][1,4]oxazin-6-yl}-octahydro-1,3-benzoxazol-6-yl]amino}ethyl)-7-methoxy-1,2-dihydro-1,5-naphthyridin-2-one]",IC50,[1],> 100 µg/mL
same,MIC,[2],1 to 10 µg/mL
same,MIC,[3],< 1 µg/mL
same,MIC,E. coli ATCC BAA-2452,< 1 µg/mL
same,MIC,E. coli NCTC 13476,< 1 µg/mL
same,MIC,E. coli MG1655,< 1 µg/mL
same,MIC,[4],< 1 µg/mL
same,MIC,[5],< 1 µg/mL
same,MIC,[6],< 1 µg/mL
same,MIC,[7],< 1 µg/mL
same,"Fold increase in MIC, E. coli MG1655 S83L",E. coli MG1655 S83L; [10],2 fold
same,MIC,[8],< 1 µg/mL
same,MIC,[9],1 to 10 µg/mL
same,"Fold increase in MIC, E. coli MG1655 D87G",E. coli MG1655 D87G; [11],2 fold
"N#Cc1ccc2ncc(=O)n(CCN[C@H]3CC[C@H]4[C@@H](C3)OC(=O)N4c3ccc4c(n3)NC(=O)CO4)c2c1 [Compound 31, 4-(2-{[(3aS,6S,7aR)-2-oxo-3-{3-oxo-2H,3H,4H-pyrido[3,2-b][1,4]oxazin-6-yl}-octahydro-1,3-benzoxazol-6-yl]amino}ethyl)-3-oxo-3,4-dihydroquinoxaline-6-carbonitrile]",IC50,[1],> 100 µg/mL
same,MIC,[2],< 1 µg/mL
same,MIC,[3],1 to 10 µg/mL
same,MIC,E. coli ATCC BAA-2452,< 1 µg/mL
same,MIC,E. coli NCTC 13476,1 to 10 µg/mL
same,MIC,E. coli MG1655,< 1 µg/mL
same,MIC,[4],< 1 µg/mL
same,MIC,[5],< 1 µg/mL
same,MIC,[6],< 1 µg/mL
same,MIC,[7],< 1 µg/mL
same,"Fold increase in MIC, E. coli MG1655 S83L",E. coli MG1655 S83L; [10],1 fold
same,MIC,[8],< 1 µg/mL
same,MIC,[9],< 1 µg/mL
same,"Fold increase in MIC, E. coli MG1655 D87G",E. coli MG1655 D87G; [11],2 fold
